Assay results as given in patent US20110086797A1, “CONTROL OF SPORE GERMINATION” (priority 2007, published 2011).
Entries after “also recorded” stand apart in the source; their conditions may differ. Read-outs that look alike come from different tables or passages of the source.

Tests used:
[1] = tested on: B. subtilis spores; assay: Measurement of germination by fluorescence (Syto-9 dye); format: cell-based, Bacillus subtilis; details: 1 μM Bryostatin
[2] = tested on: B. subtilis spores; assay: Measurement of germination by loss of heat resistance; format: cell-based, Bacillus subtilis
[3] = tested on: B. subtilis wild type spores; assay: Sensitivity to antibiotic (tetracycline) after stimulation of germination; details: for % Loss in viable cells: germinant 60 min at 37° C. (muropeptide 40 μM, bryostatin 1 μM), then tetracycline 10 μg/ml 60 min, relative to no germinant

Question: Which results are given for `CCC/C=C/C=C/C(=O)O[C@H]1/C(=C/C(=O)OC)C[C@H]2C[C@H]([C@@H](C)O)OC(=O)C[C@H](O)C[C@@H]3C[C@H](OC(C)=O)C(C)(C)[C@](O)(C[C@@H]4C/C(=C/C(=O)OC)C[C@H](/C=C/C(C)(C)[C@]1(O)O2)O4)O3` [Bryostatin]?
Answer: Fluorescence Germination Results ([1]; Wild-type spores, 5' at 37° C., excitation/emission 485/530): 14331; Fluorescence Germination Results ([1]; ΔprKC (kinase mutant) spores, 5' at 37° C., 485/530): 5208; Fluorescence Germination Results ([1]; ΔprpC (phosphatase mutant) spores, 5' at 37° C., 485/530): 13183; Fluorescence Germination Results ([1]; ΔprpC, PrpC (phosphatase mutant overexpressing phosphatase from an ectopic site) spores, 485/530): 5529; germination of ΔprkC spores (result in words) [2]: had no effect; maximum % germination ([2]; […], 1.0 μM bryostatin, 60 min): ~40%; % Loss in viable cells [3]: 32 ± 7%; sensitivity of treated spores to antibiotics (result in words) ([3]; wild type B. subtilis spores, tetracycline and spectinomycin): become sensitive to the ribosomal antibiotics tetracycline and spectinomycin

Question: How did the “inhibition of cell wall / peptidoglycan dependent germination (result in words)” value [2] turn out when `C[C@@H](N)C(=O)O` [D-alanine] was run?
Answer: did not block cell wall dependent germination

Question: How did the “germination of ΔprkC spores (result in words)” value (shortened to “germination of ΔprkC spores”) [2] turn out when `O=C([O-])c1cccc(C(=O)[O-])n1.[Ca+2]` [Ca^2+-dipicolinic acid] was run?
Answer: still responded

Question: `CCCCCCCCCCCCCC(=O)O[C@@H]1[C@@H](C)[C@@]2(O)[C@@H](C=C(CO)C[C@]3(O)C(=O)C(C)=C[C@@H]23)[C@@H]2C(C)(C)[C@]12OC(C)=O` [PMA, phorbol-12-myristate-13-acetate] was tested. Which “germination of wild type spores (result in words)” value (“germination of wild type spores” for short) [2] did it give?
Answer: chemically induces germination

Question: With GlcNAc-MurNAc tripeptide [Muropeptide] as the molecule, how does the “concentration as low as which led to germination” value [2] read?
Answer: 1 µM

Question: And the “germination of ΔprkC spores” value [2]?
Answer: failed to germinate

Question: And the “% Loss in viable cells” value [3]?
Answer: 72 ± 3%

Question: For `CC(=O)N[C@H]1C(O)O[C@H](CO)[C@@H](O)[C@@H]1O[C@H](C)C(=O)N[C@@H](C)C(=O)N[C@H](CCC(=O)O)C(N)=O` (mixture of isomers) [muramyl dipeptide], which “germination of wild type spores” value [2] is on record?
Answer: failed to induce germination

Question: How did the “germination with increasing amounts of peptidoglycan in the presence of inhibitor” value ([2]; 10 pM staurosporine, […]) turn out when `CN[C@@H]1C[C@H]2O[C@@](C)([C@@H]1OC)n1c3ccccc3c3c4c(c5c6ccccc6n2c5c31)C(=O)NC4` [staurosporine] was run?
Answer: did not increase germination

Question: And the “concentration as low as which significantly reduced peptidoglycan-dependent germination” value ([2]; […], 100 ng/ml B. subtilis peptidoglycan, 60 min)?
Answer: 10 pM

Question: And the “effect on L-alanine germination” value ([2]; data not shown)?
Answer: unaffected

Question: Which results are given for `C[C@H](N)C(=O)O` [L-alanine]?
Answer: germination of ΔprkC spores (result in words) [2]: still responded; germination of ΔprkC spores (result in words) ([2]; listed as alanine): still respond to alanine

Question: With Ala-D-γ-Glu-Dpm tripeptide as the molecule, how does the “germination of wild type spores” value ([2]; wild type B. subtilis spores) read?
Answer: failed to induce germination

Question: Teleocidin was tested. Which “germination of wild type spores” value [2] did it give?
Answer: able to stimulate germination of only the wildtype spore; also recorded: stimulated germination of wildtype spores

Question: What about the “germination of ΔprkC spores” value [2] of the same molecule?
Answer: able to stimulate germination of only the wildtype spore
